The values that follow come from patent US6424857B1, “Use of acousto-optical and sonoluminescene contrast agents” (Amersham Health AS, priority 1997, dated 2002).

This data set can be described thus: Solubility in water and sesame oil.

As to `Oc1ccc2ccccc2c1N=Nc1ccc(N=Nc2ccccc2)cc1` [Sudan III], the “solubility in sesame oil” value (sesame oil) is listed as “soluble”. Further, the solubility in water entry (water) is recorded as “very water insoluble”.
